Reference: patent US20260355189A1, “SMALL MOLECULE INHIBITORS OF NEUTROPHIL EXOCYTOSIS AND INFLAMMATION” (THE SCRIPPS RESEARCH INSTITUTE, priority 2022, published 2026)

Columns and labels:
mouse neutrophils = test: Isoluminol-dependent chemiluminescence assay of MPO secretion in purified mouse neutrophils; format: cell-based
Excerpt: FIGS. 3A-C illustrate the effect of Inhibitors C1, C2, C4, C5, and C6 and comparator Nexinhib 20 (shown as “C20”) on MPO secretion of mouse neutrophils. FIG. 3A is a schematic representation of a cell-based secondary screening assay used to analyze the potency the potency of Rab27a-JFC1 inhibitors for their ability to decrease exocytosis of intact human neutrophil. This cell-based assay measures the secretion of myeloperoxidase (MPO) by human neutrophils using cell-impermeant isoluminol-dependent chemiluminescence in the absence of exogenous peroxidases.
(§1) Human neutrophils were isolated from normal donor's blood by Ficoll density centrifugation, as described previously (23). Murine bone marrow-derived neutrophils were isolated using a Percoll gradient fractionation system as described (24). A three-layer Percoll gradient was used (52%, 64%, and 72%), and neutrophils were isolated from the 64-72% interface, washed, and used in the assays.
Extracellular MPO-dependent reactive oxygen species (ROS) production was measured using the chemiluminescence reactions mediated by isoluminol (25). To this end, 3×10^5 neutrophils were resuspended in serum-free RPMI 1640 medium in the presence of cell-impermeant isoluminol, and reactions were carried out in the absence of exogenous peroxidase. Neutrophils were incubated in the presence of compounds or DMSO (0.5%) pin-tooled into 384-well plates in a […]. Control experiments were run in parallel in the presence of [COMPOUND LEFT OUT] (0.5 mM) to inhibit endogenous myeloperoxidase. After addition of stimuli (phorbol 12-myristate 13-acetate, “PMA”) or vehicle using liquid handling devices (BioRaptor FRD, Beckman Coulter), MPO-dependent chemiluminescence was continuously monitored for 30 min at 37 °C using a 2104 EnVision multilabel plate reader. For secretion assays, 0.5×10^6 neutrophils were incubated in RPMI 1640 medium in polystyrene 96-well plates in the presence of Inhibitors or dimethyl sulfoxide (DMSO) control for 1 hour and stimulated for the indicated times at 37 °C with PMA (0.1 μg/ml), GM-CSF (10 ng/ml), and fMLP (1 μM) or DMSO control. The cells were spun down, and supernatants were transferred to clean plates using plate filters to avoid contamination from cellular secretory proteins. MPO was measured by ELISA (R&D Systems).
Results: FIG. 3B is a graph showing the effect of Inhibitors C1, C2, C4, C5, and C6 on secreted MPO-dependent reaction using the isoluminol-dependent chemiluminescence assay in highly purified mouse neutrophils. On the graph of FIG. 3B, the pre-fix “NS” means “no stimuli” where the cells were treated with 10 μM C1, C2, C4, C5, C6, and C20 alone without any exocytosis stimuli. The pre-fix “PMA” means the cells were stimulated with PMA to secrete MPO and were treated with 10 μM of the designated Inhibitor. […] Mean % inhibition: C1, 76.74; C2, 59.85; C4, 70.9; C6, 62.4; C20, 99.22.

[1] = test system: human neutrophils (azurophilic granule marker CD63); test: Flow cytometry of azurophilic granule mobilization (CD63) in human neutrophils; format: cell-based; conditions: 1 hour, GM-CSF + fMLP; for Inhibition of CD63 up-regulation: 10 μM, relative to DMSO, FIG. 4; for inhibition at 10 µM: Homo sapiens, Neutrophil, N=15 donors, FIG. 4, read-out: Mean % inhibition of CD63 up-regulation
Excerpt: as §1
(§2) Method: The up-regulation of granule membrane-associated neutrophil markers at the plasma membrane was analyzed by flow cytometry. In these studies, flow cytometry analysis was performed by resuspension of 1×10^6 human neutrophils in phenol red-free RPMI 1640 medium, treated with a 10 μM solution of Inhibitors C1, C2, C4, C5, and C6 and Nexinhib 20 (C20) or DMSO control for 1 hour, and stimulated with physiological agonists GM-CSF (10 ng/ml) for 30 min followed by the addition of fMLP (1 μM) to induce degranulation or left untreated at 37 °C (non-stimulated, NS). The reactions were stopped by transferring the samples to ice and immediately spinning down the cells to initiate blocking and staining. To analyze the plasma membrane expression of plasma membrane markers, the cells were blocked in ice-cold PBS containing 1% BSA and stained with phycoerythrin (PE)-, FITC-, or Alexa647-conjugated anti-human CD63, CD66b, MMP9, and CD11b antibodies that detect extracellular epitopes of these markers. The cells were then washed and fixed in 1% paraformaldehyde in PBS. Samples were analyzed using a NovoCyte flow cytometer, and the data were processed using FlowJo software.

[2] = test system: human neutrophils (specific granule marker CD66b); test: Flow cytometry of specific granule exocytosis (CD66b) in human neutrophils; format: cell-based; conditions: 1 hour, GM-CSF + fMLP; for Inhibition of CD66b up-regulation: relative to DMSO; for inhibition at 10 µM: Homo sapiens, Neutrophil, FIG. 5, read-out: % inhibition of CD66b up-regulation
Excerpt: as §1, §2

[3] = test system: human neutrophils (Gelatinase granule cargo MMP9); test: Flow cytometry of gelatinase granule exocytosis (MMP9) in human neutrophils; format: cell-based; conditions: 1 hour, GM-CSF + fMLP; for Inhibition in MMP9 experiment (words; printed as CD66b up-regulation): 10 μM, relative to DMSO, FIG. 6; for inhibition at 10 µM: Homo sapiens, Neutrophil, N=12 donors, FIG. 6, read-out: % Inhibition of MMP9 up-regulation
Excerpt: as §1, §2

[4] = test system: human neutrophils (secretory vesicle marker CD11b); test: Flow cytometry of secretory vesicle mobilization (CD11b) in human neutrophils; format: cell-based; conditions: 10 μM, 1 hour; GM-CSF + fMLP; relative to DMSO; N=15 donors; FIG. 7
Excerpt: as §1, §2

[5] = test system: neutrophils that carry the NLRP3 A350V mutation; test: Secretion by bone-marrow-derived neutrophils from Nlrp3 A350V (CAPS) mice; format: cell-based, mouse; conditions: 10 μM, 1 hour, LPS and fMLF; for Mobilization of azurophilic granules (MPO) / Mobilization of gelatinase granules (MMP9) / Mobilization of CD63: FIG. 8; for Neutrophil secretion (hyperactivation of secretion): Nlrp3 A350V and wild type, FIG. 8A-C; for Mobilization of CD63: murine neutrophils
Excerpt: FIG. 8A-C. […] A, gelatinase (MMP9) granules; B, azurophilic granules (MPO, myeloperoxidase); C, CD63 (an endolysosomal marker). […] Subsequently, neutrophils were either stimulated with lipopolisacharide (LPS) and the chemotatctic peptide fMLF or left untreated. C20 (Nexinhib20 is used as control). Mean±SEM, n=3. In this and subsequent figures, p<0.05; **, p<0.01; ***, p<0.001; ****, p<0.0001, ANOVA.
These compounds are now tested using neutrophils from a mouse model of Cryopyrin-Associated Periodic Syndrome (CAPS), a systemic inflammatory disease in humans, caused by gain-of-function mutations of the NOD-like receptor family member, cryopirin, also known as NLRP3 (J Cin Immunol 39, 277-286, doi:10.1007/s10875-019-00638-z (2019)). Heterozygous NLRP3 mutations lead to hyper-responsive NLRP3 inflammasome function characterized by increased caspase-1 (Casp1) activation and […], and is observed in patients and in animal models with NLRP3-gain-of-function mutations. […] Subsequently, neutrophils were either stimulated with LPS and the chemotatctic peptide fMLF or left untreated.

wild-type neutrophils = test: Secretion by wild-type neutrophils; format: cell-based
[6] = 10 μM inhibitor, PMA stimulated, FIG. 3B
[7] = Mus musculus, Neutrophil, 10 μM inhibitor, PMA stimulated, FIG. 3B

CN(C)c1cccc(/C=C(/C(=O)C(C)(C)C)n2cncn2)c1 [150 (C1)]
Inhibition of exocytosis vs DMSO control (mouse neutrophils; [6]): significant inhibition of exocytosis | inhibition at 10 µM (mouse neutrophils; [7]): 76.7% | IC50 (mouse neutrophils; Mus musculus, Neutrophil, dose-response analysis, FIG. 3C): 860 nM | Inhibition of CD63 up-regulation [1]: marked and significant inhibition of CD63 up-regulation | inhibition at 10 µM [1]: 93.1% | Inhibition of CD66b up-regulation ([2]; 10 μM, FIG. 5): marked and significant inhibition of CD66b up-regulation | inhibition at 10 µM ([2]; N=12 donors): 57.6% | Inhibition in MMP9 experiment (words; printed as CD66b up-regulation) [3]: marked inhibition of CD66b up-regulation | inhibition at 10 µM [3]: 55.3% | Release of CD11b+ vesicles / CD11b upregulation [4]: unaffected | Mobilization of azurophilic granules (MPO) [5]: inhibit the mobilization | Mobilization of gelatinase granules (MMP9) [5]: inhibit the mobilization of gelatinase granules (MMP9) | Neutrophil secretion (hyperactivation of secretion) ([5]; listed as C1): inhibit the hyperactivation of secretion | Neutrophil secretion (hyperactivation of secretion) ([5]; listed as NEIa-C1): significantly inhibit secretion | Mobilization of CD63 [5]: significantly inhibited the mobilization of CD63 | Inhibitory effect on wild-type neutrophils (wild-type neutrophils): selective inhibitory effect on wild-type neutrophils

CC(C)(C)C(=O)C(=Cc1cccc(O)c1)n1cncn1 [151 (C2)]
Inhibition of exocytosis vs DMSO control (mouse neutrophils; [6]): significant inhibition of exocytosis | inhibition at 10 µM (mouse neutrophils; [7]): 59.9% | Inhibition of CD63 up-regulation [1]: marked and significant inhibition of CD63 up-regulation | inhibition at 10 µM [1]: 59.5% | Inhibition of CD66b up-regulation ([2]; 10 μM, FIG. 5): marked and significant inhibition of CD66b up-regulation | inhibition at 10 µM ([2]; N=12 donors): 35.8% | Inhibition in MMP9 experiment (words; printed as CD66b up-regulation) [3]: marked inhibition of CD66b up-regulation | inhibition at 10 µM [3]: 26.5% | Release of CD11b+ vesicles / CD11b upregulation [4]: unaffected | Inhibitory effect on wild-type neutrophils (wild-type neutrophils): selective inhibitory effect on wild-type neutrophils

O=C(Nc1ccccc1)/C(=C/c1cccc([N+](=O)[O-])c1)n1cncn1 [152 (C4)]
Inhibition of exocytosis vs DMSO control (mouse neutrophils; [6]): significant inhibition of exocytosis | inhibition at 10 µM (mouse neutrophils; [7]): 70.9% | Inhibition of CD66b up-regulation ([2]; 10 μM, FIG. 5): marked and significant inhibition of CD66b up-regulation | inhibition at 10 µM ([2]; N=12 donors): 48.1% | inhibition at 10 µM [3]: 16.4% | Release of CD11b+ vesicles / CD11b upregulation [4]: unaffected | Mobilization of azurophilic granules (MPO) [5]: inhibit the mobilization | Mobilization of gelatinase granules (MMP9) [5]: inhibit the mobilization of gelatinase granules (MMP9) | Neutrophil secretion (hyperactivation of secretion) [5]: inhibit the hyperactivation of secretion | Mobilization of CD63 [5]: significantly inhibited the mobilization of CD63 | Inhibitory effect on wild-type neutrophils (wild-type neutrophils): selective inhibitory effect on wild-type neutrophils

CNC(=O)/C(=C/c1cccc([N+](=O)[O-])c1)n1cncn1 [153 (C5)]
Release of CD11b+ vesicles / CD11b upregulation [4]: unaffected

CC(C)(C)C(=O)/C(=C/c1cccc([N+](=O)[O-])c1)n1cncn1 [Nexinhib20, reference compound]
Mean % inhibition of MPO-dependent chemiluminescence (MPO secretion) (mouse neutrophils; [6]): 99.22% | Inhibition of CD63 up-regulation [1]: marked and significant inhibition of CD63 up-regulation | % inhibition of CD66b up-regulation ([2]; 10 μM, N=12 donors, FIG. 5): 100% | Inhibition of CD66b up-regulation ([2]; 10 μM, FIG. 5): marked and significant inhibition of CD66b up-regulation | Inhibition in MMP9 experiment (words; printed as CD66b up-regulation) [3]: marked inhibition of CD66b up-regulation | Release of CD11b+ vesicles / CD11b upregulation [4]: significantly inhibited CD11b upregulation at the plasma membrane (to levels lower than basal controls)
